We go through five compounds from ChEMBL document CHEMBL4316608, “Artemisinin-indole and artemisinin-imidazole hybrids: Synthesis, cytotoxic evaluation and reversal effects on multidrug resistance in MCF-7/ADR cells” (Bioorg Med Chem Lett, 2019).

In one data set the test system is NCI/ADR-RES. Nature of the data set: Potentiation of adriamycin-induced antiproliferative activity against human MCF7/ADR cells assessed as fold reduction in adriamycin IC50 at 5 uM measured after 48 hrs by MTT assay. The class given is functional.
Settings: not given
(In general: Tetrazolium dyes change colour on reduction, which living cells bring about.)
In the case of `C[C@H]1[C@H](OC(=O)CCC(=O)OCCn2ccnc2[N+](=O)[O-])O[C@@H]2O[C@@]3(C)CC[C@H]4[C@H](C)CC[C@@H]1[C@@]24OO3`, the “fold change (FC)” value is 27.09.
Consider `C[C@@H]1CC[C@H]2[C@@H](C)C(OC(=O)/C=C/c3cc4ccccc4[nH]3)O[C@@H]3O[C@@]4(C)CC[C@@H]1[C@]32OO4` (stereo not given in full), for which the “fold change (FC)” value was determined as 61.05.
Regarding `C[C@H]1[C@H](OC(=O)CCC(=O)OCCCn2cnc([N+](=O)[O-])c2)O[C@@H]2O[C@@]3(C)CC[C@H]4[C@H](C)CC[C@@H]1[C@@]24OO3`, the “fold change (FC)” value amounted to 15.72.
Same read-out and setting: with `C[C@H]1[C@H](OC(=O)CCC(=O)OCCCn2cc(C#N)nc2Cl)O[C@@H]2O[C@@]3(C)CC[C@H]4[C@H](C)CC[C@@H]1[C@@]24OO3` the figure was 8.51; with `C[C@H]1[C@H](OC(=O)CCC(=O)OCCCCn2cc(C#N)nc2Cl)O[C@@H]2O[C@@]3(C)CC[C@H]4[C@H](C)CC[C@@H]1[C@@]24OO3`, 11.17.

The next data set concerns L02. Nature of the data set: Cytotoxicity against human L02 cells measured after 48 hrs by MTT assay. The class given is cell-based. Particulars: L02, 48 h.
For orientation: IC50 means the concentration that gives 50% inhibition. Higher therefore signals lower potency. As to `C[C@H]1[C@H](OC(=O)CCC(=O)OCCn2ccnc2[N+](=O)[O-])O[C@@H]2O[C@@]3(C)CC[C@H]4[C@H](C)CC[C@@H]1[C@@]24OO3`, the IC50 was found to be 50.2 µM.
`C[C@@H]1CC[C@H]2[C@@H](C)C(OC(=O)/C=C/c3cc4ccccc4[nH]3)O[C@@H]3O[C@@]4(C)CC[C@@H]1[C@]32OO4` (stereo not given in full) had a concentration for half-maximal inhibition (IC50) of over 100 µM.
Turning to `C[C@H]1[C@H](OC(=O)CCC(=O)OCCCn2cnc([N+](=O)[O-])c2)O[C@@H]2O[C@@]3(C)CC[C@H]4[C@H](C)CC[C@@H]1[C@@]24OO3`, the IC50 came to 34.3 µM.
Turning to `C[C@H]1[C@H](OC(=O)CCC(=O)OCCCn2cc(C#N)nc2Cl)O[C@@H]2O[C@@]3(C)CC[C@H]4[C@H](C)CC[C@@H]1[C@@]24OO3`, half-maximal inhibition (IC50) was put at 72.8 µM.
On to `C[C@H]1[C@H](OC(=O)CCC(=O)OCCCCn2cc(C#N)nc2Cl)O[C@@H]2O[C@@]3(C)CC[C@H]4[C@H](C)CC[C@@H]1[C@@]24OO3`, for which the IC50 was 52.3 µM.

Tested on in a further data set: not listed separately
Nature of the data set: Toxicity in human MCF7 cells assessed as inhibition of cell proliferation at 5 uM measured after 48 hrs by MTT assay. It is filed as cell-based.
Settings: not given
The term inhibition denotes the share of the control response that was lost under treatment. `C[C@H]1[C@H](OC(=O)CCC(=O)OCCn2ccnc2[N+](=O)[O-])O[C@@H]2O[C@@]3(C)CC[C@H]4[C@H](C)CC[C@@H]1[C@@]24OO3`: the inhibition at 48 h, 5 µM was found to be 13.5%.
Take `C[C@@H]1CC[C@H]2[C@@H](C)C(OC(=O)/C=C/c3cc4ccccc4[nH]3)O[C@@H]3O[C@@]4(C)CC[C@@H]1[C@]32OO4` (stereo not given in full): the inhibition at 48 h, 5 µM worked out at 5.38%.
For `C[C@H]1[C@H](OC(=O)CCC(=O)OCCCn2cnc([N+](=O)[O-])c2)O[C@@H]2O[C@@]3(C)CC[C@H]4[C@H](C)CC[C@@H]1[C@@]24OO3`, the inhibition at 48 h, 5 µM was 22.3%.
For `C[C@H]1[C@H](OC(=O)CCC(=O)OCCCn2cc(C#N)nc2Cl)O[C@@H]2O[C@@]3(C)CC[C@H]4[C@H](C)CC[C@@H]1[C@@]24OO3`, the inhibition at 48 h, 5 µM was 12.8%.
Consider `C[C@H]1[C@H](OC(=O)CCC(=O)OCCCCn2cc(C#N)nc2Cl)O[C@@H]2O[C@@]3(C)CC[C@H]4[C@H](C)CC[C@@H]1[C@@]24OO3`, for which the inhibition at 48 h, 5 µM worked out at 16.6%.

In a further data set the test system is MDA-MB-231. Nature of the data set: Antiproliferative activity against human MDA-MB-231 cells measured after 48 hrs by MTT assay. It is filed as functional, cell-based. Particulars: MDA-MB-231, 48 h.
`C[C@H]1[C@H](OC(=O)CCC(=O)OCCn2ccnc2[N+](=O)[O-])O[C@@H]2O[C@@]3(C)CC[C@H]4[C@H](C)CC[C@@H]1[C@@]24OO3` returned an IC50 of 39.4 µM.
Turning to `C[C@@H]1CC[C@H]2[C@@H](C)C(OC(=O)/C=C/c3cc4ccccc4[nH]3)O[C@@H]3O[C@@]4(C)CC[C@@H]1[C@]32OO4` (stereo not given in full), the half-maximal inhibitory concentration (IC50) is over 100 µM.
Still for that read-out and setting: with `C[C@H]1[C@H](OC(=O)CCC(=O)OCCCn2cnc([N+](=O)[O-])c2)O[C@@H]2O[C@@]3(C)CC[C@H]4[C@H](C)CC[C@@H]1[C@@]24OO3` the figure was 80.9 µM.
Compound `C[C@H]1[C@H](OC(=O)CCC(=O)OCCCn2cc(C#N)nc2Cl)O[C@@H]2O[C@@]3(C)CC[C@H]4[C@H](C)CC[C@@H]1[C@@]24OO3` yielded an IC50 of over 100 µM.
Same read-out and setting: with `C[C@H]1[C@H](OC(=O)CCC(=O)OCCCCn2cc(C#N)nc2Cl)O[C@@H]2O[C@@]3(C)CC[C@H]4[C@H](C)CC[C@@H]1[C@@]24OO3` the figure was over 100 µM.

A further data set concerns A549. Description: Antiproliferative activity against human A549 cells measured after 48 hrs by MTT assay. It is filed as functional, cell-based. Particulars: A549, 48 h.
`C[C@H]1[C@H](OC(=O)CCC(=O)OCCn2ccnc2[N+](=O)[O-])O[C@@H]2O[C@@]3(C)CC[C@H]4[C@H](C)CC[C@@H]1[C@@]24OO3` displayed an IC50 of 14 µM.
For the compound `C[C@@H]1CC[C@H]2[C@@H](C)C(OC(=O)/C=C/c3cc4ccccc4[nH]3)O[C@@H]3O[C@@]4(C)CC[C@@H]1[C@]32OO4` (stereo not given in full), the IC50 is over 50 µM.
In turn, `C[C@H]1[C@H](OC(=O)CCC(=O)OCCCn2cnc([N+](=O)[O-])c2)O[C@@H]2O[C@@]3(C)CC[C@H]4[C@H](C)CC[C@@H]1[C@@]24OO3` returned a half-inhibitory concentration (IC50) of 20 µM.
`C[C@H]1[C@H](OC(=O)CCC(=O)OCCCn2cc(C#N)nc2Cl)O[C@@H]2O[C@@]3(C)CC[C@H]4[C@H](C)CC[C@@H]1[C@@]24OO3`: the IC50 was determined as 19.6 µM.
In turn, `C[C@H]1[C@H](OC(=O)CCC(=O)OCCCCn2cc(C#N)nc2Cl)O[C@@H]2O[C@@]3(C)CC[C@H]4[C@H](C)CC[C@@H]1[C@@]24OO3` displayed a 50% inhibitory concentration (IC50) of 23.3 µM.

A further data set has as its system MCF7. Nature of the data set: Antiproliferative activity against human MCF7 cells measured after 48 hrs by MTT assay. It is filed as functional, cell-based. Particulars: MCF7, 48 h.
`C[C@H]1[C@H](OC(=O)CCC(=O)OCCn2ccnc2[N+](=O)[O-])O[C@@H]2O[C@@]3(C)CC[C@H]4[C@H](C)CC[C@@H]1[C@@]24OO3` yielded an IC50 of 16.4 µM.
Take `C[C@@H]1CC[C@H]2[C@@H](C)C(OC(=O)/C=C/c3cc4ccccc4[nH]3)O[C@@H]3O[C@@]4(C)CC[C@@H]1[C@]32OO4` (stereo not given in full): the concentration for half-maximal inhibition (IC50) was over 50 µM.
`C[C@H]1[C@H](OC(=O)CCC(=O)OCCCn2cnc([N+](=O)[O-])c2)O[C@@H]2O[C@@]3(C)CC[C@H]4[C@H](C)CC[C@@H]1[C@@]24OO3` registered a 50% inhibitory concentration (IC50) of 12.7 µM. In other words, the double-digit micromolar range.
In turn, `C[C@H]1[C@H](OC(=O)CCC(=O)OCCCn2cc(C#N)nc2Cl)O[C@@H]2O[C@@]3(C)CC[C@H]4[C@H](C)CC[C@@H]1[C@@]24OO3` gave a 50% inhibitory concentration (IC50) of 13.8 µM.
Consider `C[C@H]1[C@H](OC(=O)CCC(=O)OCCCCn2cc(C#N)nc2Cl)O[C@@H]2O[C@@]3(C)CC[C@H]4[C@H](C)CC[C@@H]1[C@@]24OO3`, for which the IC50 amounted to 13.6 µM. The IC50 values of the last two compounds are within 1.5-fold of each other.

In a further data set the test system is HepG2. Description: Antiproliferative activity against human HepG2 cells measured after 48 hrs by MTT assay. Particulars: HepG2, 48 h. The class given is functional, cell-based.
For the compound `C[C@H]1[C@H](OC(=O)CCC(=O)OCCn2ccnc2[N+](=O)[O-])O[C@@H]2O[C@@]3(C)CC[C@H]4[C@H](C)CC[C@@H]1[C@@]24OO3`, the IC50 came out at 23.7 µM.
`C[C@@H]1CC[C@H]2[C@@H](C)C(OC(=O)/C=C/c3cc4ccccc4[nH]3)O[C@@H]3O[C@@]4(C)CC[C@@H]1[C@]32OO4` (stereo not given in full) had an IC50 of over 50 µM.
In turn, `C[C@H]1[C@H](OC(=O)CCC(=O)OCCCn2cnc([N+](=O)[O-])c2)O[C@@H]2O[C@@]3(C)CC[C@H]4[C@H](C)CC[C@@H]1[C@@]24OO3` displayed a half-inhibitory concentration (IC50) of 33.3 µM. This lies in the double-digit micromolar range.
Same read-out and setting: with `C[C@H]1[C@H](OC(=O)CCC(=O)OCCCn2cc(C#N)nc2Cl)O[C@@H]2O[C@@]3(C)CC[C@H]4[C@H](C)CC[C@@H]1[C@@]24OO3` the figure was over 50 µM; with `C[C@H]1[C@H](OC(=O)CCC(=O)OCCCCn2cc(C#N)nc2Cl)O[C@@H]2O[C@@]3(C)CC[C@H]4[C@H](C)CC[C@@H]1[C@@]24OO3`, 40.2 µM.
